ChEMBL document CHEMBL1201862, “PubChem BioAssay data set” (2004)
The source made the active and inactive calls.

What was measured:
[1] = biological target: T1, DNA dC->dU-editing enzyme APOBEC-3G (Homo sapiens, UniProt Q9HC16); assay: Dose Response confirmation of small molecule APOBEC3G DNA Deaminase Inhibitors via a fluorescence-based single-stranded DNA deaminase assay. [Related pubchem assays (depositor defined):AID493012, AID493028]; assay type: functional
[2] = biological target: T2, DNA dC->dU-editing enzyme APOBEC-3A (Homo sapiens, UniProt P31941); assay: APOBEC3A DNA deaminase inhibitors, dose response, biochemical (AID 504722); assay type: functional
T2 sequence (P31941 whole entry): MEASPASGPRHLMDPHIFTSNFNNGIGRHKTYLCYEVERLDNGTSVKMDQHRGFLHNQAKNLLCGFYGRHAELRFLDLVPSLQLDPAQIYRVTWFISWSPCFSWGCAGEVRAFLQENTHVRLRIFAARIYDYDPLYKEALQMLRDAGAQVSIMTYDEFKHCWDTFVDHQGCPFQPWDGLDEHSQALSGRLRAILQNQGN

Estrogen receptor = biological target: T3, Estrogen receptor (Homo sapiens, UniProt P03372);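 further: potency for inhibiting coactivator peptide recruitment to the receptor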
T3 sequence (P03372 whole entry): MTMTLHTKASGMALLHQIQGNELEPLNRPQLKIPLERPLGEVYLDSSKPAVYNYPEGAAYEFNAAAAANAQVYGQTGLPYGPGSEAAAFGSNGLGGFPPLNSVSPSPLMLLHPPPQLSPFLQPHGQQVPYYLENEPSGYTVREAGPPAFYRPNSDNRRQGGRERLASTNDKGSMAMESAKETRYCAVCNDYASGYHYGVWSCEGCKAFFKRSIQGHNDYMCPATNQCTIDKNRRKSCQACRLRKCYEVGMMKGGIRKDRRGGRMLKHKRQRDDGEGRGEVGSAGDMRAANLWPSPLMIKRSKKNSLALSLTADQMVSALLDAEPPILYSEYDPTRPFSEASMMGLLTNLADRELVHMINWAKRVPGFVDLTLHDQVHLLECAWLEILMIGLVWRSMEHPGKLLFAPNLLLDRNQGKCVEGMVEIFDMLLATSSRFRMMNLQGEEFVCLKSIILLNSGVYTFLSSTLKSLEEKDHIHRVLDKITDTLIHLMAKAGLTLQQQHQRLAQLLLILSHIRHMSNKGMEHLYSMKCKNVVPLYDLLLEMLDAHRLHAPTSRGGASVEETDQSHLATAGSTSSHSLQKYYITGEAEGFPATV

Leucine aminopeptidase = biological target: T4, Leucine aminopeptidase (Plasmodium falciparum 3D7, UniProt Q8IL11); assay: P. falciparum M17LAP inhibitors, primary screen, biochemical, fluorogenic H-Leu-NHMec substrate, 1536-well (AID 1619); assay type: functional
T4 sequence (Q8IL11 whole entry): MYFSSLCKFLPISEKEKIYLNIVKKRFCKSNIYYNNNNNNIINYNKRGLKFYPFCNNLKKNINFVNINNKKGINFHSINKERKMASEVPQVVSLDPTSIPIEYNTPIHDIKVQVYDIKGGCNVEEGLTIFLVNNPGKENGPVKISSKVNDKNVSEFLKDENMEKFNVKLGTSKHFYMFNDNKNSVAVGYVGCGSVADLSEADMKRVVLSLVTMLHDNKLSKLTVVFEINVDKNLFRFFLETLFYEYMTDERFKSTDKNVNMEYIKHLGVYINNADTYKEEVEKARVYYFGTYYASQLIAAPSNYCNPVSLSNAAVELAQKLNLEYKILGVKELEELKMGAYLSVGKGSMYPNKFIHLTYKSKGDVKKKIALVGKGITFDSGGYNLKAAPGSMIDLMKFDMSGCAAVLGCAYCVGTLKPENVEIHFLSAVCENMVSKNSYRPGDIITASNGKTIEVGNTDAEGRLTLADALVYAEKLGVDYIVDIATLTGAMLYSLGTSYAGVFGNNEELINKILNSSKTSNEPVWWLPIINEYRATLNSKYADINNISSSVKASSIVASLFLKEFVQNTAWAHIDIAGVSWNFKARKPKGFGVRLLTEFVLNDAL

[3] = biological target: Voltage-dependent T-type calcium channel subunit alpha-1H (Homo sapiens, UniProt O95180); assay type: functional;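 further: channel activity triggered by adding a high calcium stimulation buffer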
Chain of Voltage-dependent T-type calcium channel subunit alpha-1H (O95180 whole entry): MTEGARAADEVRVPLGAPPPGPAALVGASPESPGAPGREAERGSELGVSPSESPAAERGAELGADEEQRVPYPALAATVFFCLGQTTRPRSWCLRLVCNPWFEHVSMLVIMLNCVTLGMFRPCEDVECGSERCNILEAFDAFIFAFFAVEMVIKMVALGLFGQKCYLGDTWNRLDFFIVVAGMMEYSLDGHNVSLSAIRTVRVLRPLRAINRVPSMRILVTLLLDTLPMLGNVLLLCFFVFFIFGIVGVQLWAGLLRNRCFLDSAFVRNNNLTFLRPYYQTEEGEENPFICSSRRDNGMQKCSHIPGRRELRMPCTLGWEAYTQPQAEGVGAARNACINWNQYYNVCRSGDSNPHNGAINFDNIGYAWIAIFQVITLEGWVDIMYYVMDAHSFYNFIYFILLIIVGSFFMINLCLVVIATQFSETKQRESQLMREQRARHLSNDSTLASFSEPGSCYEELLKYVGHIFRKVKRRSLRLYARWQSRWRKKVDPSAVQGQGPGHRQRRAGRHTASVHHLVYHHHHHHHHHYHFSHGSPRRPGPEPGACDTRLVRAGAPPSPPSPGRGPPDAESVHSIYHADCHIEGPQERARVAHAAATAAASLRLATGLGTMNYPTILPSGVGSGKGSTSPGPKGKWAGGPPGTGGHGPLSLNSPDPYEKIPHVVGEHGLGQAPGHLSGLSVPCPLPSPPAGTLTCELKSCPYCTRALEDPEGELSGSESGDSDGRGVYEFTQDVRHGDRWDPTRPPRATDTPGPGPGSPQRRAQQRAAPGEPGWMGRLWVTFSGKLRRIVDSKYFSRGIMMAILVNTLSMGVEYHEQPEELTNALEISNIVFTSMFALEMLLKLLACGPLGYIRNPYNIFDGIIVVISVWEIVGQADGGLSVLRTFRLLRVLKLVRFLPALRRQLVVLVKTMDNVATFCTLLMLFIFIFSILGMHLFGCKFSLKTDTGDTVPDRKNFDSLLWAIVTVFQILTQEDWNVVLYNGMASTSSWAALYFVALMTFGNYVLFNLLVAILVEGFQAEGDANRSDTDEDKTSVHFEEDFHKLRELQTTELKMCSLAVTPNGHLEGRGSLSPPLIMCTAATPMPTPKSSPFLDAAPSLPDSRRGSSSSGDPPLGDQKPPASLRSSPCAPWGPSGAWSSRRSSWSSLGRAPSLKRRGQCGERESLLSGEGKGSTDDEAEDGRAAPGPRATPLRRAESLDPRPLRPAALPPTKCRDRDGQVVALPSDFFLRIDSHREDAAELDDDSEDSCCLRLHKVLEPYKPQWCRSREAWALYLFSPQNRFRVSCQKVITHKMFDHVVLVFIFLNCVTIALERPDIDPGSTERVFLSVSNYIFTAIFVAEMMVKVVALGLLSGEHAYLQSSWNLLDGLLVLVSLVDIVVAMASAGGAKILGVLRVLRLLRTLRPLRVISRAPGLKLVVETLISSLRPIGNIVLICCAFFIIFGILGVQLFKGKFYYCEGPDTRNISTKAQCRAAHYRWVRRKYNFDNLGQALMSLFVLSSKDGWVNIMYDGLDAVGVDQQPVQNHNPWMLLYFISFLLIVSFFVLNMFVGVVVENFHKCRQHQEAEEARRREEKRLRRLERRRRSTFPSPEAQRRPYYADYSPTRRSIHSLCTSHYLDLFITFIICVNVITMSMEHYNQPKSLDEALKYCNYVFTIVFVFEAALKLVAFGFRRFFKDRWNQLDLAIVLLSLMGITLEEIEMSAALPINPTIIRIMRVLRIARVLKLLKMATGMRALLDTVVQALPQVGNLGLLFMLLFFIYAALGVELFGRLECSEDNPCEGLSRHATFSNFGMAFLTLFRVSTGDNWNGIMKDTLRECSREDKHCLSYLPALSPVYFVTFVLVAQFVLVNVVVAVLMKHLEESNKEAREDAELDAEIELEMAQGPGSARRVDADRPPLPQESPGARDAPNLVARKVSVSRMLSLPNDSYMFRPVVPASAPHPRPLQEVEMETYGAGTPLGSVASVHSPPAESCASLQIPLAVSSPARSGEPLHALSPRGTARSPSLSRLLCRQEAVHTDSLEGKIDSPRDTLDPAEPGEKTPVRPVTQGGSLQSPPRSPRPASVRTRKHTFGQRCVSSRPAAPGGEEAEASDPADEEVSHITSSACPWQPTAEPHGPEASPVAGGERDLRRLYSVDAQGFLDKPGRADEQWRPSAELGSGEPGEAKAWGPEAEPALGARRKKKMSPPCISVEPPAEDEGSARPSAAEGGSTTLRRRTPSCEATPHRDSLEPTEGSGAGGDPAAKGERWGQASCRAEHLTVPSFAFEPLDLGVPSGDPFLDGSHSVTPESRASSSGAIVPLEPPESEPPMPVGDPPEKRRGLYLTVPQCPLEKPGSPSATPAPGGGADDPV

[4] = biological target: T1, DNA dC->dU-editing enzyme APOBEC-3G; assay type: functional
[5] = biological target: T2, DNA dC->dU-editing enzyme APOBEC-3A; assay: Dose Response confirmation of small molecule APOBEC3A DNA Deaminase Inhibitors via a fluorescence-based single-stranded DNA deaminase assay. [Related pubchem assays (depositor defined):AID493011, AID493024]; assay type: functional
Aminopeptidase N = biological target: T5, Aminopeptidase N (Plasmodium falciparum FcB1/Columbia, UniProt O96935); assay: P. falciparum M1AAP inhibitors, biochemical, fluorogenic H-Leu-NHMec substrate, 1536-well (AID 1445); design: species or system Plasmodium falciparum 3D7, 3D7
T5 sequence (O96935 whole entry): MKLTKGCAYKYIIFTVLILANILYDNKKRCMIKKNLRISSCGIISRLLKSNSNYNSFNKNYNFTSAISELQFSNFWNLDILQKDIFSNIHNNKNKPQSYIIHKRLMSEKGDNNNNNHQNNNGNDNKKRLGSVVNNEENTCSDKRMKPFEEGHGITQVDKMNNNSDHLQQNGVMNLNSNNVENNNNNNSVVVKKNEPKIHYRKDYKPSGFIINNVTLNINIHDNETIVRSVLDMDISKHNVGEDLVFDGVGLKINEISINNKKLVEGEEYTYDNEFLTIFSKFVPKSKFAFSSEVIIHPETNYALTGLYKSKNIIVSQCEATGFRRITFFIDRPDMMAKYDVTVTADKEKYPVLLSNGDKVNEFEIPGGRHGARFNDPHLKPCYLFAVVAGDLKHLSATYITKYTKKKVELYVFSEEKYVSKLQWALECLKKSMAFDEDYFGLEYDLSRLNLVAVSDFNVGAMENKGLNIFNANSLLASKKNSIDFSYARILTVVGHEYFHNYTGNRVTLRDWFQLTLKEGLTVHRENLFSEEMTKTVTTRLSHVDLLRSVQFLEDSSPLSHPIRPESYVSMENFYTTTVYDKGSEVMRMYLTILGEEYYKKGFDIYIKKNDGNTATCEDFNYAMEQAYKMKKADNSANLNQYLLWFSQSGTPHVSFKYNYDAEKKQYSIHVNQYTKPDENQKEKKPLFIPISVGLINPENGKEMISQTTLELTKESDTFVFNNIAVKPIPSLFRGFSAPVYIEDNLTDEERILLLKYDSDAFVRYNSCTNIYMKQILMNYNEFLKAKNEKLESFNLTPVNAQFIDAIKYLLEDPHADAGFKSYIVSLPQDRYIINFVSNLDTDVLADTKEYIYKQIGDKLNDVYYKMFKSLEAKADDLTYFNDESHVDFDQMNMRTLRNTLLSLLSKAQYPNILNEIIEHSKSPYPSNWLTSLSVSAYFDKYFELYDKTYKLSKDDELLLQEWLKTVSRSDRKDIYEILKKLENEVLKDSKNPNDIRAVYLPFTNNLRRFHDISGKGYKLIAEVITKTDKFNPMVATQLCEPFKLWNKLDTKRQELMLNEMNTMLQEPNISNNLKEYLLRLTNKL

[6] = cytotoxicity in HEK-293T cells, dose response, cytotoxicity control for TCR NF-kB inhibitor project, luminescence, T-cell screen hits (AID 489026); assay type: functional, cell-based;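 further: cells exposed to compound about 14 hours before the viability readout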
[7] = Luminescence Cell-Based Dose Confirmation HTS to Identify Activators of 5'UTR Stem-Loop Driven Alpha-Synuclein mRNA Translation in H4 Neuroglioblastoma Cells. [Related pubchem assays: 1829 (Project Summary), 1814 (Primary HTS)]; assay type: functional
H4 = assay: Luminescence Cell-Based Dose Response HTS to Identify Activators of 5'UTR Stem-Loop Driven Prion Protein mRNA Translation in H4 Neuroglioblastoma Cells. [Related pubchem assays: 1829 (Project Summary), 1814 (Primary HTS)]; assay type: functional; conditions: Homo sapiens
[8] = Luminescence Cell-Based Dose Response HTS to Identify Activators of Luciferase Translation or Activity in H4 […] Cells. [Related pubchem assays: 1829 (Project Summary), 1814 (Primary HTS)]; assay type: functional
[9] = biological target: Glucose-6-phosphate 1-dehydrogenase (Homo sapiens, UniProt P11413); assay: human G6PD enzyme inhibitors, dose response, selectivity assay for P. falciparum G6PD inhibitor project, biochemical, fluorescence (AID 504792); assay type: functional
Chain of Glucose-6-phosphate 1-dehydrogenase (P11413 whole entry): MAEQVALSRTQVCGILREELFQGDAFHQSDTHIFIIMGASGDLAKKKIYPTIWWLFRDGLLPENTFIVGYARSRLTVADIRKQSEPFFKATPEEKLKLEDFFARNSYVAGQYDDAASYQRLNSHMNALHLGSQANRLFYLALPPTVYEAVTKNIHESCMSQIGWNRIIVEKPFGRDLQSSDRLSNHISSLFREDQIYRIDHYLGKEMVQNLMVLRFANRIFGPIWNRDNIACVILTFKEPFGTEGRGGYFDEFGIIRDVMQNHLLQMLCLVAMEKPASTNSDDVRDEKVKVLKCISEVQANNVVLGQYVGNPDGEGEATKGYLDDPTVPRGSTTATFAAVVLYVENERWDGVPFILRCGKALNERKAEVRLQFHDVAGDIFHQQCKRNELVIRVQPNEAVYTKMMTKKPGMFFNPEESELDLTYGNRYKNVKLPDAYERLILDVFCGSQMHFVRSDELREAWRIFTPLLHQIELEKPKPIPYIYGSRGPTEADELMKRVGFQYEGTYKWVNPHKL

Nonstructural protein 1 = Nonstructural protein 1 (Influenza A virus, UniProt Q194T2); assay type: functional, Influenza A virus (A/California/07/2009(H1N1))
Chain of Nonstructural protein 1 (Q194T2 whole entry): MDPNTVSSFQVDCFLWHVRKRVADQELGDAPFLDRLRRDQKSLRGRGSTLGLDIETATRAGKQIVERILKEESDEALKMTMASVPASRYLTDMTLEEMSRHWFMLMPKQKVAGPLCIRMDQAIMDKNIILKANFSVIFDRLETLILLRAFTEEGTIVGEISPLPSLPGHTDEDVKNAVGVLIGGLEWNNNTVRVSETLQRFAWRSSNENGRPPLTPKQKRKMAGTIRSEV

[10] = microbe, parasite or virus in culture; assay type: functional; conditions: Mycobacterium tuberculosis
[11] = growth suppression of beta-catenin-knockout colon cells, dose response, cell-based, HCT116, human colon tumor (AID 1045); assay type: functional;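 further: HCT116 colon tumor cells with beta catenin knocked out; cells exposed to compound for 60 hours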
[12] = growth suppression of PTEN-null colon cells, dose response, cell-based, HCT116 PTEN knockout (AID 1047); assay type: functional;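 further: HCT116 colon tumor cells with PTEN knocked out; cells exposed to compound for 60 hours before readout; potency for loss of cell viability measured by luminescence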
Fatty acid synthase [13] = biological target: T6, Fatty acid synthase (Homo sapiens, UniProt P49327); assay: FAS thioesterase domain inhibitors, dose response, biochemical, kinetic fluorescence intensity (AID 624326); assay type: functional;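 further: rate of fluorescence rise from hydrolysis of a fluorogenic O-methyl fluorescein ester substrate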
Fatty acid synthase [14] = biological target: T6, Fatty acid synthase; assay: FAS thioesterase domain inhibitors, dose response, biochemical, endpoint fluorescence intensity, uHTS hits (AID 624327); assay type: functional;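 further: fluorescence from hydrolysis of an O-methyl fluorescein acyl ester substrate by the enzyme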
Cytochrome P450 2D6 = Cytochrome P450 2D6 (Homo sapiens, UniProt P10635);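 further: CYP2D6 member of a cytochrome P450 panel assay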
Chain of Cytochrome P450 2D6 (P10635 whole entry): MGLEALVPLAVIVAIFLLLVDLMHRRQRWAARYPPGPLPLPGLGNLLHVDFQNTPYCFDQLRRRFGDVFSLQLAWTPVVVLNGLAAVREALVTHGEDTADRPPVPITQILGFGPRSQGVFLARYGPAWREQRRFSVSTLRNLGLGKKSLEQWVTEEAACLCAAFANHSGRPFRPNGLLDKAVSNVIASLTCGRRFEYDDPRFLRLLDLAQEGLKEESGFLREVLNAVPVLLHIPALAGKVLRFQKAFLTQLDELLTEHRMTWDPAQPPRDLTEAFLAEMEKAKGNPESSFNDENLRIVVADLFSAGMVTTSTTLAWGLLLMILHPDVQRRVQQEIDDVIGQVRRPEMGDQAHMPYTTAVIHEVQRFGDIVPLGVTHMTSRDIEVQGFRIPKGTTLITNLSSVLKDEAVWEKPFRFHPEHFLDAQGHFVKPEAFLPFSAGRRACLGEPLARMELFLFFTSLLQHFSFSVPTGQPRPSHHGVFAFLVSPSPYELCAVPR

[15] = HEp-2 cell cytotoxicity, dose response, cytotoxicity control for RSV inhibitor project, HTS (AID 2410); assay type: functional; conditions: human respiratory syncytial virus

T1 sequence (Q9HC16 whole entry): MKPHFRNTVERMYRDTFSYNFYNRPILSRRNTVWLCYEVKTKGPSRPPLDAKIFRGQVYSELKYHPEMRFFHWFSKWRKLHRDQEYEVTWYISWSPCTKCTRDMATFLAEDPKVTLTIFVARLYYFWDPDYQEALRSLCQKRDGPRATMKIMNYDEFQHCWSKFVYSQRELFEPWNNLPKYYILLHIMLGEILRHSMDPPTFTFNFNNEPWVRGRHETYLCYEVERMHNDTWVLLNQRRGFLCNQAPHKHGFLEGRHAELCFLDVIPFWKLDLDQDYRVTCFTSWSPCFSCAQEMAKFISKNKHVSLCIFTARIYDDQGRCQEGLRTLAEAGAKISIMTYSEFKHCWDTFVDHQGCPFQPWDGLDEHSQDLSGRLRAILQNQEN

SMILES: CCCCCC(O)CCc1nnc(S)n1-c1ccccc1 (centres undefined)
- IC50 [1]: 6.33 µM (active)
- IC50 [2]: > 100 µM (inactive)

SMILES: COc1cc(NC(=O)COc2ccc(-n3cnnn3)cc2)c(OC)cc1Cl
- IC50 (Estrogen receptor): 8.31 µM (active)

SMILES: CCN1CCN(Cc2ccc(NC(=O)Nc3ccc(OC)cc3)cc2)CC1
- IC50 (Leucine aminopeptidase): 25.1 µM (active)

SMILES: O=C(O)CCCNC(=O)/C(=C\C=C\c1ccccc1)NC(=O)c1ccccc1Cl
- IC50 (Leucine aminopeptidase): 86.8 µM (active)

SMILES: FC(F)(F)c1nc(N2CCCC2)ncc1-c1nnnn1-c1ccc(Cl)cc1
- EC50 [3]: 14.6 µM (active)

SMILES: COc1ccc(-n2c(SCC(=O)Nc3ccc4c(c3)OCO4)nnc2C(C)N2CCCCC2)cc1 (centres undefined)
- IC50 (Estrogen receptor): > 50 µM (not active)

SMILES: CCc1n(CC(O)COC2CCCCC2)c2ccccc2[n+]1C (centres undefined)
- IC50 [4]: 1.42 µM (active)
- IC50 [5]: 1.75 µM (active)

SMILES: O=C(NN1C(=O)c2ccccc2NC1c1ccccn1)c1ccccc1 (centres undefined)
- IC50 (Aminopeptidase N): 81.1 µM (active)

SMILES: COc1ccc(N2C(=O)CC(Sc3n[nH]c(-c4ccccc4)n3)C2=O)cc1 (centres undefined)
- IC50 [1]: 14.9 µM (active)
- IC50 [2]: > 100 µM (inactive)

SMILES: COc1cccc(-c2cc(C(=O)Nc3cc(C)n(Cc4ccc(Cl)cc4)n3)no2)c1
- IC50 [6]: > 80 µM (inactive)

SMILES: O=C(O)c1cccc(S(=O)(=O)Nc2ccc(O)cc2Sc2nc3ccccc3s2)c1
- IC50 (Leucine aminopeptidase): 9.02 µM (active)

SMILES: Cc1ccccc1NC(=O)N1CCCC(c2nc(-c3ccc(C(C)C)cc3)no2)C1 (centres undefined)
- EC50 [7]: 5.18 µM (active)
- EC50 (H4): 23.1 µM (active)
- EC50 [8]: 0.157 µM (active)
- EC50 [3]: 8.11 µM (active)

SMILES: [O-]/[N+](=C\c1ccncc1)c1ccccc1
- IC50 [9]: > 80 µM (inactive)

SMILES: CCN1C(=O)/C(=C/NNC(=O)c2ccncc2)C(=O)NC1=S
- IC50 (Nonstructural protein 1): 13.3 µM (active)
- IC50 (Aminopeptidase N): 85.1 µM (active)

SMILES: Cc1cccc(NC(=O)CSc2nc3ccccc3o2)c1
- EC50 [3]: 4.44 µM (active)

SMILES: O=C(Nc1nnc(S(=O)(=O)N2CCCCC2)s1)c1cccc(Br)c1
- IC50 [9]: > 80 µM (inactive)

SMILES: CCNS(=O)(=O)c1ccc(CCC(=O)NCc2ccccc2)cc1
- IC50 (Aminopeptidase N): 60.1 µM (active)

SMILES: NC(Cc1ccc([N+](=O)[O-])cc1)=NOC(=O)c1ccc2ccccc2c1
- CC50 [10]: 33 µM (active)
- IC50 (Estrogen receptor): > 50 µM (not active)

SMILES: O=S(=O)(c1cccc(-c2nnc(S)n2Cc2ccccc2)c1)N1CCOCC1
- IC50 [1]: 4.28 µM (active)
- IC50 [2]: > 100 µM (inactive)

SMILES: O=C(CSc1ccccn1)Nc1cccc2ccccc12
- IC50 [4]: 6 µM (active)
- IC50 [5]: 8.82 µM (active)

SMILES: COc1ccc(C2NC(=O)c3sc(=S)n(-c4ccccc4)c3N2)cc1 (centres undefined)
- EC50 [11]: 22.6 µM (active)
- EC50 [3]: 1.23 µM (active)
- EC50 [12]: 21.6 µM (active)

SMILES: COc1cc(CNc2nc[nH]n2)cc(Br)c1OC
- IC50 (Leucine aminopeptidase): 8.2 µM (active)

SMILES: CC(=O)Nc1ccc2nc(-c3ccccn3)[nH]c2c1
- IC50 (Aminopeptidase N): 94 µM (active)

SMILES: O=C(NNC(=S)NCCc1ccccc1)c1ccc(Br)s1
- IC50 (Aminopeptidase N): 9.19 µM (active)

SMILES: O=[N+]([O-])c1cc(S(=O)(=O)Nc2cccc(C(F)(F)F)c2)ccc1-n1nnc2ccccc21
- IC50 (Fatty acid synthase [13]): 4.72 µM (active)
- EC50 [3]: 3.52 µM (active)
- IC50 (Fatty acid synthase [14]): 7.12 µM (active)

SMILES: Cc1c(Cl)c([N+](=O)[O-])nn1Cc1ccc(C(=O)N/N=C\c2cccc(Br)c2)o1
- AC50 (Cytochrome P450 2D6): 25.1 µM (inconclusive)
- IC50 [9]: > 80 µM (inactive)
- CC50 [15]: 39.4 µM (active)

SMILES: O=[N+]([O-])c1ccccc1/C=N/n1c(S)nnc1-c1cccnc1
- IC50 [1]: 3.08 µM (active)
- IC50 [2]: > 100 µM (inactive)
